Data published in patent US20230077514A1, “METHODS FOR MODULATING CALORIE CONSUMPTION” (Duke University, priority 2020, published 2023).
Entries after “also recorded” stand apart in the source; their conditions may differ.

Experiments:
P2 purinoceptor = experiment: Vagal nerve recording with P2 purinoceptor antagonist; assay type: in vivo, mice; conditions: PPADS 25 mg/kg
Description: Margolskee, J. Biol. Chem. 277(1): 1-4 (2002); Lu et al., Nature Com. 10(1): (2019). […] (FIG. 33, FIG. 36, and FIG. 37).

cervical vagus nerve = experiment: Whole nerve electrophysiology of the cervical vagus during duodenal sugar perfusion; assay type: in vivo, mice; conditions: for vagal response (firing) to intraduodenal sugar vs baseline: wild-type mice, sucrose 300 mM, D-glucose 150 mM, fructose 150 mM, galactose 150 mM, maltodextrin 8%, α-MGP 150 mM, sucralose 15 mM, acesulfame K 15 mM, saccharin 15 mM
Protocol: FIG. 1. […] Model: sugars are perfused into the duodenal lumen while nerve activity is recorded from the cervical vagus of anesthetized wild-type mice.
The proximal duodenum was perfused with sugars, thus bypassing any gustatory or gastric activation. Sugars were tested based on the following properties: both caloric content and sweet taste (sucrose [300 mM], D-glucose [150 mM], […], galactose [150 mM]), calorie-only (maltodextrin [8%], alpha-methylglucopyranoside (α-MGP) [150 mM]), or taste-only (sucralose [15 mM], acesulfame-K [15 mM], saccharin [15 mM]) (FIG. 1, FIG. 2, FIG. 3, FIG. 4).

duodenal Cck cells = experiment: Vagal recording with intraluminal 532 nm laser silencing of duodenal Cck (neuropod) cells; assay type: in vivo; conditions: Cck_Halo mice; sucrose 300 mM, α-mgp 150 mM, sucralose 15 mM
Protocol: FIG. 9. Model: intraluminal 532 nm laser activates NpH3 chloride channels to silence duodenal Cck cells in CckCRE_NpH3 mice.
Using whole nerve electrophysiology of the cervical vagus nerve, it was confirmed that vagal activity increases in the presence of luminal sugars. Kaelberer et al., Science 361 (6408) (2018). The proximal duodenum was perfused with sugars, thus bypassing any gustatory or gastric activation. Sugars were tested based on the following properties: both caloric content and sweet taste (sucrose [300 mM], D-glucose [150 mM], fructose [150 mM], galactose [150 mM]), calorie-only (maltodextrin [8%], alpha-methylglucopyranoside (α-MGP) [150 mM]), or taste-only (sucralose [15 mM], acesulfame-K [15 mM], saccharin [15 mM]) (FIG. 1, FIG. 2, FIG. 3, FIG. 4). […] Intraluminal application of the 532 nm laser eliminated the vagal response to sucrose [300 mM], α-mgp [150 mM], and sucralose [15 mM] (n ≥ 5, p < 0.001) (FIG. 10 and FIG. 11; laser activation and wild-type controls). Thus, neuropod cells are required to sense both the calorie and taste properties of sugar and communicate these signals onto vagal neurons.
Cck neuropod cells in the duodenum express receptors for fatty acids (FIG. 69), analyzed by bulk sequencing Cck-positive and Cck-negative epithelial cells in the duodenum of CckGFP mice. Thus, CCK cells in the duodenum may signal the presence of fatty acids to the vagus nerve. To test this, the silencing optogenetic channel was expressed in Cck cells of mice. […] In the duodenum, there is overlap in cells expressing CCK and the vesicular glutamate transporter 1 (Vglut1), required for release of the neurotransmitter glutamate. To test whether glutamate is required as a signaling molecule for fat transduction to the vagus nerve, a cocktail of glutamate receptor inhibitors was perfused through the duodenum of wild type mice. Blockade of ionotropic and metabotropic glutamate receptors blocked vagal firing elicited by glutamate (FIG. 71). […] In an initial baseline test, mice freely explore an arena for 20 minutes, during which their position in the arena measured. […]

[1] = tested on: murine small intestinal organoids; experiment: Glutamate release assay on murine small intestinal organoids; assay type: cell-based, mouse; conditions: sucrose 300 mM, α-MGP 150 mM, sucralose 15 mM; for glutamate concentration in the supernatant after stimulation: PBS control 2.632 ± 1.280; for glutamate release compared to PBS: p < 0.05
Protocol: Slc5a1+ Cck-GFP cells express transcripts for the vesicular glutamate transporters Slc17a6, Slc17a7, Slc17a8 and the excitatory neurotransmitter transporters Slc1a1, Slc1a2, and Slc1a3 (FIG. 4). […] A glutamate release assay was performed on murine small intestinal organoids to determine if glutamate release was stimuli specific (FIG. 24-left). α-MGP was used for a caloric stimulus with no sweet taste, because it is not metabolized once it enters the cell and thus allowed for isolation of cell entry. After nutrient stimulation, the glutamate concentration in the supernatant was 2.632 ± 1.280 ng/µL for PBS control, 13.460 ± 1.724 ng/µL for sucrose [300 mM], 18.183 ± 7.904 ng/µL for α-MGP [150 mM], and 6.053 ± 1.169 ng/µL for sucralose [15 mM].

human duodenal organoids = experiment: Glutamate release assay on human duodenal organoids; assay type: cell-based; conditions: sucrose 300 mM, α-MGP 150 mM, sucralose 15 mM, n = 1 human
[2] = Two-bottle choice between iso-sweet sucrose and sucralose; assay type: in vivo, mice
Protocol: Domingos et al., Nature Neurosci. […] Behav. […] Bennink et al., J. Nucl. […] Perez et al., Pharmacol. Biochem. Behav. […] Thus, a goal of this study was to determine if synaptic gut-brain neurotransmission drives sugar preference.
CckCRE_NpH3 mice (n = 8) and littermate controls (n = 5) were implanted with the flexible fiberoptic and given the choice between iso-sweet sucrose [300 mM] and sucralose [15 mM] in a one-hour choice assay (FIG. 38 and FIG. 53). […] Whether the caloric neurotransmitter glutamate was contributing to the sucrose preference was tested.

[3] = target: T1, sweet taste receptor T1R2/3 (Mus musculus, UniProt Q925D8+Q925I4); experiment: Receptor pharmacology in whole nerve (vagal) electrophysiology: sweet taste receptor block; assay type: in vivo, mice; conditions: gurmarin 7 µM
T1 construct: from tissue; host or cells: living mouse: duodenal lumen perfused, cervical vagus nerve recorded
T1 sequence (Q925I4 20-843): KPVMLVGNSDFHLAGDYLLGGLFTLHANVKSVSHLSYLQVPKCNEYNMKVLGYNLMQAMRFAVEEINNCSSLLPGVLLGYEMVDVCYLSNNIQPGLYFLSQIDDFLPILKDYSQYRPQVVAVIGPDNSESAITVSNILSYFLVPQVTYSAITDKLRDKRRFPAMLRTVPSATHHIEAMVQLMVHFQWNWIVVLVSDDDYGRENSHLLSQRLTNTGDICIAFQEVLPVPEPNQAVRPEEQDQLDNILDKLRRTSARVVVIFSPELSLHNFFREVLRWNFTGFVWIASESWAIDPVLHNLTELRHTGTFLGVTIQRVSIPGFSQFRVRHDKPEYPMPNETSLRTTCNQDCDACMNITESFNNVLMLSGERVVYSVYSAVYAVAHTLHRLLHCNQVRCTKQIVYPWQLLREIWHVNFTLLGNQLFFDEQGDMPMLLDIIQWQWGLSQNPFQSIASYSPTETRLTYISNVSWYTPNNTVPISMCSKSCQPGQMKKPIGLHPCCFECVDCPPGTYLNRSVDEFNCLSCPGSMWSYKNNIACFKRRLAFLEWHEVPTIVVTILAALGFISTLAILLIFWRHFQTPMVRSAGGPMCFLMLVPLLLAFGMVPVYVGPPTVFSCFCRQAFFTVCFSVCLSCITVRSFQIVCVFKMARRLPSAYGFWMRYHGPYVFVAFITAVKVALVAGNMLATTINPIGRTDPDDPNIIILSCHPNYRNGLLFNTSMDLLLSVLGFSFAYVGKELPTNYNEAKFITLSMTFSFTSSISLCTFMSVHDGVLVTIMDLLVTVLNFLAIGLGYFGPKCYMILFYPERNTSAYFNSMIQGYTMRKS
T1 sequence (Q925D8 21-858): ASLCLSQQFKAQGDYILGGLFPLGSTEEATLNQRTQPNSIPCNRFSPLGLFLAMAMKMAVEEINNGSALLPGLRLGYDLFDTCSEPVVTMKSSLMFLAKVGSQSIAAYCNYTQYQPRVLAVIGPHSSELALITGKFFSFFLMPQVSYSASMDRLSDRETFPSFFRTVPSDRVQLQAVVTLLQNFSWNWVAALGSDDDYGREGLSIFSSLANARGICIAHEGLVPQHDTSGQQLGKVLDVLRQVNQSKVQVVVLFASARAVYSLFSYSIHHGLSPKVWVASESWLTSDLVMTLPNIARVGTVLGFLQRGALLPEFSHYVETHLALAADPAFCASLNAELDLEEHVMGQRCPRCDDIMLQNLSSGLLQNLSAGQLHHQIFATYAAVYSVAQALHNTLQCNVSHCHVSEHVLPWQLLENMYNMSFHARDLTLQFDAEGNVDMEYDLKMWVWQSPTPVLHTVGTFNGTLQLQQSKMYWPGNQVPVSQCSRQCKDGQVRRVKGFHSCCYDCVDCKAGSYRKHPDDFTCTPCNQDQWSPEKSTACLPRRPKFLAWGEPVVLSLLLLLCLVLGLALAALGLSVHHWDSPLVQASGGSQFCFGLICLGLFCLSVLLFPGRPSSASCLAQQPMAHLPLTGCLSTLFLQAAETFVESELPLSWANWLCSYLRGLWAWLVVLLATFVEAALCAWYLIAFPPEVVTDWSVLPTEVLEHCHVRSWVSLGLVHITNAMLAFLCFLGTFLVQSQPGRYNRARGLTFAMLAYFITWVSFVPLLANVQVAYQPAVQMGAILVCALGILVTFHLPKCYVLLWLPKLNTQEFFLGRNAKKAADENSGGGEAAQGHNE
Description: (FIG. 21 and FIG. 22), showing neuropod cells use two distinct receptor mechanisms to transduce caloric and non-caloric sugar signals to the vagus nerve.

## Cc1nc(N=Nc2ccc(S(=O)(=O)O)cc2S(=O)(=O)O)c(COP(=O)(O)O)c(C=O)c1O [PPADS, pyridoxalphosphate-6-azophenyl-2’,4'-disulfonic acid]
P2 purinoceptor; sucralose 15 mM
  time to peak vagal firing rate to sucralose: prolonged
P2 purinoceptor; sucralose 15 mM, wild-type mice
  effect on vagal response to sucralose: significantly attenuates; also recorded: abolished
P2 purinoceptor; sucrose 300 mM
  effect on vagal response to sucrose: not affected
P2 purinoceptor; α-MGP 150 mM
  effect on vagal response to α-MGP: not affected

## CC1=CC(=O)[N-]S(=O)(=O)O1.[K+] [acesulfame K]
Cervical vagus nerve
  vagal response (firing) to intraduodenal sugar vs baseline: responds significantly

## OC[C@H]1O[C@@](CO)(O[C@H]2O[C@H](CO)[C@@H](O)[C@H](O)[C@H]2O)[C@@H](O)[C@@H]1O [sucrose]
Cervical vagus nerve
  vagal response (firing) to intraduodenal sugar vs baseline: responds significantly
Duodenal Cck cells
  vagal response with Cck cells silenced by 532 nm laser: eliminated
[1]
  glutamate concentration in the supernatant after stimulation: 13.460 ± 1.724 ng/µL
  glutamate release compared to PBS: significantly higher; also recorded: elicit significant release of glutamate
Human duodenal organoids
  glutamate release compared to PBS control: elicited glutamate release; also recorded: release significant amounts of glutamate
[2]; CckCRE_NpH3 mice, control 473 nm laser, one-hour choice
  preference for sucrose: 90.8% ± 3.74%
[2]; CckCRE_NpH3 mice, silencing 532 nm laser, one-hour choice vs sucralose 15 mM
  preference for sucrose: 58.9% ± 3.92%
[2]; negative genotype littermate controls, 473 nm
  preference for sucrose: 84.2% ± 6.30%
[2]; negative genotype littermate controls, 532 nm
  preference for sucrose: 87.7% ± 2.21

## COC1OC(CO)C(O)C(O)C1O (stereo not drawn) [α-MGP, alpha-methylglucopyranoside]
Cervical vagus nerve
  vagal response (firing) to intraduodenal sugar vs baseline: responds significantly
Duodenal Cck cells
  vagal response with Cck cells silenced by 532 nm laser: eliminated
[1]
  glutamate concentration in the supernatant after stimulation: 18.183 ± 7.904 ng/µL
  glutamate release compared to PBS: significantly higher
[1]; listed as aMGP
  glutamate release compared to PBS: elicit significant release of glutamate
Human duodenal organoids
  glutamate release compared to PBS control: elicited glutamate release
Human duodenal organoids; listed as aMGP
  glutamate release compared to PBS control: release significant amounts of glutamate

## O=C1NS(=O)(=O)c2ccccc21 [saccharin]
Cervical vagus nerve
  vagal response (firing) to intraduodenal sugar vs baseline: no significant

## gurmarin
[3]; sucralose 15 mM
  effect on vagal firing elicited by sucralose: abolished; also recorded: inhibited
[3]; sucrose 300 mM
  effect on vagal response to sucrose: did not affect
[3]; α-MGP 150 mM
  effect on vagal response to α-MGP: did not affect

## O=C(CO)[C@@H](O)[C@H](O)[C@H](O)CO [fructose]
Cervical vagus nerve; fructose 600 mM and 1 M, n.s.
  vagal response at high concentrations: blunted vagal response
Cervical vagus nerve
  vagal response (firing) to intraduodenal sugar vs baseline: no significant

## O=C[C@H](O)[C@@H](O)[C@@H](O)[C@H](O)CO [galactose]
Cervical vagus nerve
  vagal response (firing) to intraduodenal sugar vs baseline: elicited significant vagal firing
